Measured values taken from patent US11951108B2, “Combination therapy for treating cancer” (Epizyme, Inc., priority 2016, dated 2024).
Read-outs that look alike come from different tables or passages of the source. Each block holds one compound with its values, some of them ahead of it.

Legend:
DU4475 [1] = system: DU4475
OV-90 [2] = system: OV-90
SUM52PE = assay: In vitro combination study, breast cancer cell line SUM52PE; settings: ER/PR −/−, HER2 −, 7 day pre-treatment + 6 day co-treatment
COV504 = settings: COV504; 4+3 model
DU4475 [3] = assay: In vitro combination study, breast cancer cell line DU4475; settings: ER/PR −/−, HER2 −, 7 day pre-treatment + 6 day co-treatment
SKOV3 [4] = assay: In vitro combination study, ovarian cancer cell line SKOV3; settings: 4+3 model
COV644* = assay: In vitro combination study, ovarian cancer cell line COV644; settings: COV644*; 7+3 model
COV434 = settings: 4+3 model
BT-20 = assay: In vitro combination study, breast cancer cell line BT-20; settings: ER/PR −/−, HER2 −, 7 day pre-treatment + 6 day co-treatment
TOV112D = assay: In vitro combination study, ovarian cancer cell line TOV112D; settings: 4+3 model
HCC1419 = assay: In vitro combination study, breast cancer cell line HCC1419; settings: ER/PR −/−, HER2 +, 7 day pre-treatment + 6 day co-treatment
KURAMOCHI = assay: In vitro combination study, ovarian cancer cell line KURAMOCHI; settings: KURAMOCHI; 4+3 model
A2780 [5] = assay: In vitro combination study, ovarian cancer cell line A2780; settings: A2780; 4+3 model
OVISE = assay: In vitro combination study, ovarian cancer cell line OVISE; settings: OVISE; 4+3 model
JH)S-4 [6] = assay: In vitro combination study, ovarian cancer cell line JH)S-4; settings: 4+3 model
MDA-MB-231 = assay: In vitro combination study, breast cancer cell line MDA-MB-231; settings: ER/PR −/−, HER2 −, 7 day pre-treatment + 6 day co-treatment
SKOV3 [7] = system: SKOV3
OVMANA [8] = system: OVMANA
ES-2 = assay: In vitro combination study, ovarian cancer cell line ES-2; settings: 4+3 model
MDA-MB-453 = assay: In vitro combination study, breast cancer cell line MDA-MB-453; type: cell-based; settings: ER/PR −/−, HER2 −, 7 day pre-treatment + 6 day co-treatment
MDA-MB-175VII = assay: In vitro combination study, breast cancer cell line MDA-MB-175VII; settings: ER/PR +/+, HER2 +, 7 day pre-treatment + 6 day co-treatment
HCC1143 [9] = system: HCC1143
CAOV-3 = assay: In vitro combination study, ovarian cancer cell line CAOV-3; type: cell-based; settings: 4+3 model
OV-90 [10] = assay: In vitro combination study, ovarian cancer cell line OV-90; settings: OV-90; 4+3 model
TOV21G = assay: In vitro combination study, ovarian cancer cell line TOV21G; type: cell-based; settings: 4+3 model
HCC1143 [11] = assay: In vitro combination study, breast cancer cell line HCC1143; settings: ER/PR −/−, HER2 −, 7 day pre-treatment + 6 day co-treatment
COV362 = assay: In vitro combination study, ovarian cancer cell line COV362; settings: COV362; 4+3 model
OVMANA [12] = assay: In vitro combination study, ovarian cancer cell line OVMANA; settings: OVMANA; 4+3 model
HCC1187 = assay: In vitro combination study, breast cancer cell line HCC1187; settings: ER/PR −/−, HER2 −, 7 day pre-treatment + 6 day co-treatment
JH)S-4 [13] = system: JH)S-4
A2780 [14] = system: A2780

SMILES: Nc1ncn([C@@H]2O[C@H](CO)[C@@H](O)[C@H]2O)c(=O)n1 [Azacitidine]
- Synergy or antagonism of second agent with tazemetostat (IC50 shift of second agent) (MDA-MB-468): C (key: B: Synergy > 4× IC50 shift; Synergy > 2× IC50 shift; No Effect; Antagonism; X: Not Tested)
- Synergy or antagonism of second agent with tazemetostat (IC50 shift of second agent) (DU4475 [1]): C (key: B: Synergy > 4× IC50 shift; Synergy > 2× IC50 shift; No Effect; Antagonism; X: Not Tested)
- Synergy or antagonism of second agent with tazemetostat (IC50 shift of second agent) (OV-90 [2]): C (key: B: Synergy > 4× IC50 shift; Synergy > 2× IC50 shift; No Effect; Antagonism; X: Not Tested)
- Synergy or antagonism of second agent with tazemetostat (IC50 shift of second agent) (SUM52PE): C (Synergy > 2× IC50 shift)
- Synergy or antagonism of second agent with tazemetostat (IC50 shift of second agent) (HCC38): C (key: B: Synergy > 4× IC50 shift; Synergy > 2× IC50 shift; No Effect; Antagonism; X: Not Tested)

SMILES: Nc1cc(C(F)(F)F)c(-c2cc(N3CCOCC3)nc(N3CCOCC3)n2)cn1 [BKM120]
- Synergy or antagonism of second agent with tazemetostat (IC50 shift of second agent) (COV504): C (Synergy > 2× IC50 shift)
- Synergy or antagonism of second agent with tazemetostat (IC50 shift of second agent) (DU4475 [3]): A (Antagonism)
- Synergy or antagonism of second agent with tazemetostat (IC50 shift of second agent) (SKOV3 [4]): C (Synergy > 2× IC50 shift)
- Synergy or antagonism of second agent with tazemetostat (IC50 shift of second agent) (COV644*): C (Synergy > 2× IC50 shift)
- Synergy or antagonism of second agent with tazemetostat (IC50 shift of second agent) (COV434): C (Synergy > 2× IC50 shift)
- Synergy or antagonism of second agent with tazemetostat (IC50 shift of second agent) (BT-20): C (Synergy > 2× IC50 shift)
- Synergy or antagonism of second agent with tazemetostat (IC50 shift of second agent) (TOV112D): C (Synergy > 2× IC50 shift)
- Synergy or antagonism of second agent with tazemetostat (IC50 shift of second agent) (HCC1419): C (Synergy > 2× IC50 shift)
- Synergy or antagonism of second agent with tazemetostat (IC50 shift of second agent) (KURAMOCHI): C (Synergy > 2× IC50 shift)
- Synergy or antagonism of second agent with tazemetostat (IC50 shift of second agent) (A2780 [5]): C (Synergy > 2× IC50 shift)
- Synergy or antagonism of second agent with tazemetostat (IC50 shift of second agent) (OVISE): C (Synergy > 2× IC50 shift)
- Synergy or antagonism of second agent with tazemetostat (IC50 shift of second agent) (JH)S-4 [6]): C (Synergy > 2× IC50 shift)

SMILES: Cc1nc(Nc2ncc(C(=O)Nc3c(C)cccc3Cl)s2)cc(N2CCN(CCO)CC2)n1 [Dasatinib]
- Synergy or antagonism of second agent with tazemetostat (IC50 shift of second agent) (MDA-MB-231): C (Synergy > 2× IC50 shift)
- Synergy or antagonism of second agent with tazemetostat (IC50 shift of second agent) (SUM52PE): B (Synergy > 4× IC50 shift)
- Synergy or antagonism of second agent with tazemetostat (IC50 shift of second agent) (HCC1569): C (key: B: Synergy > 4× IC50 shift; Synergy > 2× IC50 shift; No Effect; Antagonism; X: Not Tested)

SMILES: COc1cc([C@@H]2c3cc4c(cc3[C@@H](O[C@@H]3O[C@@H]5CO[C@@H](C)O[C@H]5[C@H](O)[C@H]3O)[C@H]3COC(=O)[C@H]23)OCO4)cc(OC)c1O [Etoposide]
- Synergy or antagonism of second agent with tazemetostat (IC50 shift of second agent) (SUM159PT): C (key: B: Synergy > 4× IC50 shift; Synergy > 2× IC50 shift; No Effect; Antagonism; X: Not Tested)
- Synergy or antagonism of second agent with tazemetostat (IC50 shift of second agent) (HCC1143 [9]): C (key: B: Synergy > 4× IC50 shift; Synergy > 2× IC50 shift; No Effect; Antagonism; X: Not Tested)

SMILES: Cc1sc2c(c1C)C(c1ccc(Cl)cc1)=N[C@@H](CC(=O)OC(C)(C)C)c1nnc(C)n1-2 [JQ1]
- Synergy or antagonism of second agent with tazemetostat (IC50 shift of second agent) (COV504): C (Synergy > 2× IC50 shift)
- Synergy or antagonism of second agent with tazemetostat (IC50 shift of second agent) (SKOV3 [4]): B (Synergy > 4× IC50 shift)
- Synergy or antagonism of second agent with tazemetostat (IC50 shift of second agent) (CAOV-3): B (Synergy > 4× IC50 shift)
- Synergy or antagonism of second agent with tazemetostat (IC50 shift of second agent) (ES-2): C (Synergy > 2× IC50 shift)
- Synergy or antagonism of second agent with tazemetostat (IC50 shift of second agent) (TOV112D): C (Synergy > 2× IC50 shift)
- Synergy or antagonism of second agent with tazemetostat (IC50 shift of second agent) (HCC1419): C (Synergy > 2× IC50 shift)
- Synergy or antagonism of second agent with tazemetostat (IC50 shift of second agent) (OV-90 [10]): C (Synergy > 2× IC50 shift)
- Synergy or antagonism of second agent with tazemetostat (IC50 shift of second agent) (TOV21G): C (Synergy > 2× IC50 shift)
- Synergy or antagonism of second agent with tazemetostat (IC50 shift of second agent) (A2780 [5]): B (Synergy > 4× IC50 shift)
- Synergy or antagonism of second agent with tazemetostat (IC50 shift of second agent) (HCC1143 [11]): C (Synergy > 2× IC50 shift)

SMILES: Nc1ccccc1NC(=O)c1ccc(CNc2nccc(-c3cccnc3)n2)cc1 [Mocetinostat]
- Synergy or antagonism of second agent with tazemetostat (IC50 shift of second agent) (SKOV3 [4]): B (Synergy > 4× IC50 shift)
- Synergy or antagonism of second agent with tazemetostat (IC50 shift of second agent) (COV362): C (Synergy > 2× IC50 shift)
- Synergy or antagonism of second agent with tazemetostat (IC50 shift of second agent) (COV434): C (Synergy > 2× IC50 shift)
- Synergy or antagonism of second agent with tazemetostat (IC50 shift of second agent) (TOV112D): C (Synergy > 2× IC50 shift)
- Synergy or antagonism of second agent with tazemetostat (IC50 shift of second agent) (KURAMOCHI): C (Synergy > 2× IC50 shift)
- Synergy or antagonism of second agent with tazemetostat (IC50 shift of second agent) (OVMANA [12]): C (Synergy > 2× IC50 shift)
- Synergy or antagonism of second agent with tazemetostat (IC50 shift of second agent) (OV-90 [10]): C (Synergy > 2× IC50 shift)

More lines, main results first:

- Synergy or antagonism of second agent with tazemetostat (IC50 shift of second agent) (COV644*): C (Synergy > 2× IC50 shift)
- Synergy or antagonism of second agent with tazemetostat (IC50 shift of second agent) (ES-2): C (Synergy > 2× IC50 shift)
SMILES: COc1cccc2c1C(=O)c1c(O)c3c(c(O)c1C2=O)C[C@@](O)(C(=O)CO)C[C@@H]3O[C@H]1C[C@H](N)[C@H](O)[C@H](C)O1 [Doxorubicin]
- Synergy or antagonism of second agent with tazemetostat (IC50 shift of second agent) (SKOV3 [7]): B (key: B: Synergy > 4× IC50 shift; Synergy > 2× IC50 shift; No Effect; Antagonism; X: Not Tested)
- Synergy or antagonism of second agent with tazemetostat (IC50 shift of second agent) (RMUGS*): B (key: B: Synergy > 4× IC50 shift; Synergy > 2× IC50 shift; No Effect; Antagonism; X: Not Tested)
- Synergy or antagonism of second agent with tazemetostat (IC50 shift of second agent) (OVMANA [8]): C (key: B: Synergy > 4× IC50 shift; Synergy > 2× IC50 shift; No Effect; Antagonism; X: Not Tested)

- Synergy or antagonism of second agent with tazemetostat (IC50 shift of second agent) (MDA-MB-453): A (Antagonism)
- Synergy or antagonism of second agent with tazemetostat (IC50 shift of second agent) (MDA-MB-175VII): C (Synergy > 2× IC50 shift)
- Synergy or antagonism of second agent with tazemetostat (IC50 shift of second agent) (SUM52PE): C (Synergy > 2× IC50 shift)
SMILES: Cc1cc(Nc2cc(N3CCN(C)CC3)nc(/C=C/c3ccccc3)n2)n[nH]1 [ENMD-2076]

- Synergy or antagonism of second agent with tazemetostat (IC50 shift of second agent) (HCC1187): C (Synergy > 2× IC50 shift)
- Synergy or antagonism of second agent with tazemetostat (IC50 shift of second agent) (COV644*): C (Synergy > 2× IC50 shift)
- Synergy or antagonism of second agent with tazemetostat (IC50 shift of second agent) (ES-2): C (Synergy > 2× IC50 shift)
SMILES: CC(=O)O[C@H]1C(=O)[C@@]2(C)[C@H]([C@H](OC(=O)c3ccccc3)[C@]3(O)C[C@H](OC(=O)[C@H](O)[C@@H](NC(=O)c4ccccc4)c4ccccc4)C(C)=C1C3(C)C)[C@]1(OC(C)=O)CO[C@@H]1C[C@@H]2O [Paclitaxel]
- Synergy or antagonism of second agent with tazemetostat (IC50 shift of second agent) (SKOV3 [7]): C (key: B: Synergy > 4× IC50 shift; Synergy > 2× IC50 shift; No Effect; Antagonism; X: Not Tested)
- Synergy or antagonism of second agent with tazemetostat (IC50 shift of second agent) (RMUGS*): C (key: B: Synergy > 4× IC50 shift; Synergy > 2× IC50 shift; No Effect; Antagonism; X: Not Tested)
- Synergy or antagonism of second agent with tazemetostat (IC50 shift of second agent) (DU4475 [1]): B (key: B: Synergy > 4× IC50 shift; Synergy > 2× IC50 shift; No Effect; Antagonism; X: Not Tested)
- Synergy or antagonism of second agent with tazemetostat (IC50 shift of second agent) (JH)S-4 [13]): C (key: B: Synergy > 4× IC50 shift; Synergy > 2× IC50 shift; No Effect; Antagonism; X: Not Tested)
- Synergy or antagonism of second agent with tazemetostat (IC50 shift of second agent) (OAW42): B (key: B: Synergy > 4× IC50 shift; Synergy > 2× IC50 shift; No Effect; Antagonism; X: Not Tested)
- Synergy or antagonism of second agent with tazemetostat (IC50 shift of second agent) (A2780 [14]): C (key: B: Synergy > 4× IC50 shift; Synergy > 2× IC50 shift; No Effect; Antagonism; X: Not Tested)
